The values that follow come from patent publication US7713994B2 (Wyeth LLC, priority 2005, dated 2010).

One may read the IC50 as the concentration that gives 50% inhibition.

One assay deals with LoVo. Nature of the assay: Cytotoxicity assay (SRB), LoVo. It counts as cell-based. As to conditions: LoVo cells, SRB, read-out: In Vitro Cellular Activity IC50 LOVO. The procedure, abridged:
(§1)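 Percentage survival is derived from SRB absorbance (540 nm) versus untreated cells. Exposures were 3 days, except 6 days for BT474, at 37 °C and 7% CO2.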

The subject of the next assay is BT474. The assay is described as follows: Cytotoxicity assay (SRB), BT474. Type of assay: cell-based. An outline of the steps: as §1
The next assay has as its system MCF-7. The assay is described as follows: Cytotoxicity assay (SRB), MCF-7. Type of assay: cell-based. As to conditions: MCF-7 cells, SRB, read-out: In Vitro Cellular Activity IC50 MCF-7. The procedure, abridged: as §1
The next assay has as its target T1, cyclin B/CDK1 enzyme (Homo sapiens, UniProt P06493).
T1 construct: purchased New England BioLabs; host or cells: Sf9 insect cells, recombinant baculovirus
The assay is described as follows: CDK1 ELISA kinase assay (phospho-Rb ser 795 detection). Type of assay: biochemical. The procedure, abridged:
(§2)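 Screening was done at 10 ug/ml compound. Each partially purified cyclin/CDK complex, produced in baculovirus-infected Sf9 cells, phosphorylated a coated GST-Rb C-terminal fragment with 200 μM ATP, and Ser795 phosphorylation was quantified by HRP-ELISA at 450 nm.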
(In general: In an ELISA, binding on a coated surface is turned into a signal by an enzyme label.)

The subject of a further assay is HCT-116. The assay is described as follows: Cytotoxicity assay (SRB), HCT-116. It counts as cell-based. As to conditions: HCT116 cells, SRB, read-out: In Vitro Cellular Activity IC50 HCT116. An outline of the steps: as §1
For another assay, the target named is T2, cyclin E/CDK2 enzyme (Homo sapiens, UniProt P24941).
T2 construct: made in house; host or cells: Sf9 insect cells, recombinant baculovirus
Nature of the assay: CDK2 ELISA kinase assay (phospho-Rb ser 795 detection). It counts as biochemical. An outline of the steps:
as §2

The target of the next assay is T3, cyclin D1/cdk 4 enzyme (Homo sapiens, UniProt P11802).
T3 construct: made in house; host or cells: Sf9 insect cells, recombinant baculovirus
The assay is described as follows: CDK4 ELISA kinase assay (phospho-Rb ser 795 detection). It counts as biochemical. The procedure, abridged:
as §2

[1] abbreviates: In Vitro Enzyme Assay, cyclin B/CDK1, read-out: CDK1 IC50.
Where [2] appears, read: In Vitro Enzyme Assay, cyclin E/CDK2, read-out: CDK2 IC50.
The mark [3] stands for this setting: In Vitro Enzyme Assay, cyclin D1/cdk 4, read-out: CDK4 IC50.
Where [4] appears, read: Homo sapiens, LoVo, 72 h, 3 days.
[5] abbreviates: Homo sapiens, BT-474, 144 h, BT474 cells, 6 days, SRB; read-out: In Vitro Cellular Activity IC50 BT474.
[6] abbreviates: Homo sapiens, MCF7, 72 h, 3 days.
[7] abbreviates: Homo sapiens, HCT-116, 72 h, 3 days.
Where [8] appears, read: In Vitro Enzyme Assays, read-out: CDK1 IC50.
The mark [9] stands for this setting: In Vitro Enzyme Assays, read-out: CDK2 IC50.
Where [10] appears, read: In Vitro Enzyme Assays, 200 μM ATP, read-out: CDK4 IC50.
Setting [11] is: Homo sapiens, LoVo, 72 h, three days.
[12] abbreviates: Homo sapiens, BT-474, 144 h, BT474 cells, SRB, 6 days; read-out: In Vitro Cellular Activity IC50 BT474.
Where [13] appears, read: Homo sapiens, MCF7, 72 h, three days.
Setting [14] is: Homo sapiens, HCT-116, 72 h, three days.

Molecules are shown by their SMILES. Read-outs that look alike come from different tables or passages of the source. A value given as a limit tells only on which side of the number the result lay.

T3 sequence (P11802 whole entry, species assumed): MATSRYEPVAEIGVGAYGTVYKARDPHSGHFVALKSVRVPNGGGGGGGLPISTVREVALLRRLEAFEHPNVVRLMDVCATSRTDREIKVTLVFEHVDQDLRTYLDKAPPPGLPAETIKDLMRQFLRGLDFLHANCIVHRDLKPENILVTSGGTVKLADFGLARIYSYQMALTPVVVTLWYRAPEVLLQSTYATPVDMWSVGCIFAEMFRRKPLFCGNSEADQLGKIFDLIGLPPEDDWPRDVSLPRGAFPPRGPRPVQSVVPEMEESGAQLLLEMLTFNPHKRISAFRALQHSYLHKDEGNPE
T3 sequence (P24385 whole entry partner, species assumed): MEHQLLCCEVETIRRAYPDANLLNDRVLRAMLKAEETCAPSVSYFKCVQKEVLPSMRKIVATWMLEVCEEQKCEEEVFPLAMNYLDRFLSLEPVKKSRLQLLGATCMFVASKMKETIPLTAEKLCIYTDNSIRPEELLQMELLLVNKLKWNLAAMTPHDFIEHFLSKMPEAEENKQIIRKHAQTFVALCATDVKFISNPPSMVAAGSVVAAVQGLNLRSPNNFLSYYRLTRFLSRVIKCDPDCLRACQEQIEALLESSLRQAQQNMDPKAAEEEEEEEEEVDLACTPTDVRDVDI
T1 sequence (P06493 whole entry): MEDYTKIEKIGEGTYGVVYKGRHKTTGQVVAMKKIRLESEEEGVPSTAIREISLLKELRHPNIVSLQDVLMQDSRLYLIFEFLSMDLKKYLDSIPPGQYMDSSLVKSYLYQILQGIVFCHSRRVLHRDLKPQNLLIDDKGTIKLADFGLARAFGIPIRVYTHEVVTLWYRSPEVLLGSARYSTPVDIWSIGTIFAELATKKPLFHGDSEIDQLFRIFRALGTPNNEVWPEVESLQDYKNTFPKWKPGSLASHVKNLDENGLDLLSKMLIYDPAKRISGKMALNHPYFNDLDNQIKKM
T1 sequence (P14635 whole entry partner): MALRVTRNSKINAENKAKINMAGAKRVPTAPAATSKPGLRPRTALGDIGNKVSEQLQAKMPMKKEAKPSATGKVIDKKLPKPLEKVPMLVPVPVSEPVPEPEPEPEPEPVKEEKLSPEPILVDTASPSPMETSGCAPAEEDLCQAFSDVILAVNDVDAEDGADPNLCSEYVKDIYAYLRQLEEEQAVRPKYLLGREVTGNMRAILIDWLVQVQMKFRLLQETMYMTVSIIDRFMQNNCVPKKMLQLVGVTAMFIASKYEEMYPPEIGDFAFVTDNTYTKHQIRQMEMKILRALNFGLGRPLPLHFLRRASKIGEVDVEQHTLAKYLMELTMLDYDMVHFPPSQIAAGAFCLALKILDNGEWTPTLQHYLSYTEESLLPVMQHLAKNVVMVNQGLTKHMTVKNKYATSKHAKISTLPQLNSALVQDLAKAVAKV

`CN1CCN(c2ccc(N/C=C3\C(=O)NC(=O)c4ccc(-c5ccoc5)cc43)c(F)n2)CC1` [Example 457, (4Z)-4-({[2-Fluoro-6-(4-methylpiperazin-1-yl)pyridin-3-yl]amino}methylene)-6-(3-furyl)isoquinoline-1,3(2H,4H)-dione]: the IC50 with LoVo (3 days) came to 1 µM; in the assay on BT474 (BT474 cells, 6 days, SRB; read-out: In Vitro Cellular Activity IC50 BT474), 1.6 µM; in the assay with MCF-7 (3 days), 2.1 µM; on cyclin B/CDK1 enzyme (setting [1]), 24.2 µM; with HCT-116 (3 days) it was 0.96 µM; on cyclin E/CDK2 enzyme (setting [2]), 19.4 µM. Also, the IC50 on cyclin D1/cdk 4 enzyme (setting [3]) was found to be 0.19 µM.

For `O=C1NC(=O)c2ccc(I)cc2/C1=C/NCc1cc(O)c(OCCN2CCCC2)cn1` [Example 522, 4-({[4-Hydroxy-5-(2-pyrrolidin-1-yl-ethoxy)-pyridin-2-ylmethyl]-amino}-methylene)-6-iodo-4H-isoquinoline-1,3-dione], the IC50 in the assay on LoVo (setting [4]) was determined as 1.19 µM; in the assay with BT474 (setting [5]), 2.13 µM; in the assay on MCF-7 (setting [6]), 0.99 µM; on cyclin B/CDK1 enzyme (setting [1]), 32.4 µM; with HCT-116 (setting [7]) it was 1.42 µM; at cyclin E/CDK2 enzyme (setting [2]), 4.5 µM. Further, on cyclin D1/cdk 4 enzyme (setting [3]), the IC50 is 0.11 µM.

With `COC1CCN(Cc2ccc(N/C=C3\C(=O)NC(=O)c4ccc(Br)cc43)cc2)CC1` [Example 397, (4Z)-6-Bromo-4-[({4-[(4-methoxypiperidin-1-yl)methyl]phenyl}amino)methylene]isoquinoline-1,3(2H,4H)-dione], the IC50 was 4.3 µM in the assay with LoVo (setting [4]); 6.18 µM in the assay with BT474 (setting [5]); 3.6 µM in the assay with MCF-7 (setting [6]); above 50 µM on cyclin B/CDK1 enzyme (setting [8]); 2.8 µM in the assay on HCT-116 (setting [7]); above 50 µM on cyclin E/CDK2 enzyme (setting [9]). Moreover, on cyclin D1/cdk 4 enzyme (setting [10]), the IC50 is 0.19 µM.

For the compound `CC1(C)Oc2cc(CN/C=C3\C(=O)NC(=O)c4ccc(Br)cc43)cc(O)c2O1` [Example 224, (4Z)-6-Bromo-4-({[(7-hydroxy-2,2-dimethyl-1,3-benzodioxol-5-yl)methyl]amino}methylene)isoquinoline-1,3(2H,4H)-dione], the IC50 with LoVo (setting [11]) came to 7.9 µM; in the assay with BT474 (setting [12]), 9.6 µM; in the assay on MCF-7 (setting [13]), 7.4 µM; at cyclin B/CDK1 enzyme (setting [8]) it was 45.5 µM; with HCT-116 (setting [14]), 6.4 µM; on cyclin E/CDK2 enzyme (setting [9]) it was 4 µM. In addition, the IC50 on cyclin D1/cdk 4 enzyme (setting [10]) amounted to 0.17 µM.

Turning to `COc1ccc(-c2ccc3c(c2)C(=CNCc2ccc(OC)c(O)c2)C(=O)NC3=O)cc1` [Example 833, 4-[(3-Hydroxy-4-methoxy-benzylamino)-methylene]-6-(4-methoxy-phenyl)-4H-isoquinoline-1,3-dione], the IC50 in the assay with LoVo (setting [4]) is 19.2 µM; with BT474 (setting [5]), 25.1 µM; in the assay with MCF-7 (setting [6]), 26.5 µM; at cyclin B/CDK1 enzyme (setting [1]), above 50 µM; in the assay with HCT-116 (setting [7]), 16.9 µM; at cyclin E/CDK2 enzyme (setting [2]), 15.1 µM. At cyclin D1/cdk 4 enzyme (setting [3]), the IC50 was 0.01 µM.

With `CN1CCN(c2ccc(NC=C3C(=O)NC(=O)c4ccc(-c5ccc(C=CC(=O)O)cc5)cc43)cc2)CC1` [Example 698, 3-[4-(4-{[4-(4-Methyl-piperazin-1-yl)-phenylamino]-methylene}-1,3-dioxo-1,2,3,4-tetrahydro-isoquinolin-6-yl)-phenyl]-acrylic acid], the IC50 in the assay on LoVo (setting [4]) was above 50 µM; in the assay with BT474 (setting [5]), 48.1 µM; in the assay with MCF-7 (setting [6]), above 50 µM; on cyclin B/CDK1 enzyme (setting [1]) it was above 50 µM; with HCT-116 (setting [7]), 46.3 µM; at cyclin E/CDK2 enzyme (setting [2]) it was above 50 µM. The IC50 on cyclin D1/cdk 4 enzyme (setting [3]) stood at 0.28 µM.

For `CC(CO)N1CCN(c2ccc(N/C=C3\C(=O)NC(=O)c4ccc(I)cc43)cc2)CC1` (centres unmarked) [Example 398, (4Z)-4-[({4-[4-(2-Hydroxy-1-methylethyl)piperazin-1-yl]phenyl}amino)methylene]-6-iodoisoquinoline-1,3(2H,4H)-dione], the IC50 is 6.3 µM with LoVo (setting [4]); 6.19 µM in the assay with BT474 (setting [5]); 4.4 µM in the assay on MCF-7 (setting [6]); 21.6 µM at cyclin B/CDK1 enzyme (setting [8]); 2.3 µM with HCT-116 (setting [7]); above 50 µM on cyclin E/CDK2 enzyme (setting [9]). Also, at cyclin D1/cdk 4 enzyme (setting [10]), the IC50 worked out at 0.18 µM.

Regarding `O=C1NC(=O)c2ccc(I)cc2/C1=C/NCc1ccc(NC(=O)c2ccco2)c(O)c1` [Example 516, N-[2-Hydroxy-4-({[(Z)-(6-iodo-1,3-dioxo-2,3-dihydroisoquinolin-4(1H)-ylidene)methyl]amino}methyl)phenyl]-2-furamide], the IC50 in the assay on LoVo (setting [4]) is 21.4 µM; in the assay on BT474 (setting [5]) it was 18.2 µM; in the assay on MCF-7 (setting [6]) it was 24.1 µM; at cyclin B/CDK1 enzyme (setting [1]), above 50 µM; in the assay with HCT-116 (setting [7]) it was 3.83 µM; at cyclin E/CDK2 enzyme (setting [2]), above 50 µM. Further, on cyclin D1/cdk 4 enzyme (setting [3]), the IC50 was 0.22 µM.

As for `O=C1NC(=O)c2ccc(-c3ccc[nH]3)cc2C1=CNc1ccc(CN2CCCC2)cc1` [Example 838, 4-[(4-Pyrrolidin-1-ylmethyl-phenylamino)-methylene]-6-(1H-pyrrol-2-yl)-4H-isoquinoline-1,3-dione], the half-maximal inhibitory concentration (IC50) in the assay with LoVo (setting [4]) came to 17.2 µM; with BT474 (setting [5]), 23.5 µM; in the assay on MCF-7 (setting [6]), 8.2 µM; at cyclin B/CDK1 enzyme (setting [1]), 45.5 µM; with HCT-116 (setting [7]), 7.2 µM; at cyclin E/CDK2 enzyme (setting [2]), 23.6 µM. On cyclin D1/cdk 4 enzyme (setting [3]), the IC50 turned out to be 0.15 µM.

`CN1CCN(c2ccc(N/C=C3\C(=O)NC(=O)c4ccc(-c5ccc(OC(F)(F)F)cc5)cc43)cc2)CC1` [Example 298, (4Z)-4-({[4-(4-Methylpiperazin-1-yl)phenyl]amino}methylene)-6-[4-(trifluoromethoxy)phenyl]isoquinoline-1,3(2H,4H)-dione]: the 50% inhibitory concentration (IC50) in the assay on LoVo (setting [11]) is 9.8 µM; with BT474 (setting [12]), 6.3 µM; with MCF-7 (setting [13]), 2.8 µM; at cyclin B/CDK1 enzyme (setting [8]) it was 40.6 µM; in the assay on HCT-116 (setting [14]) it was 2.1 µM; on cyclin E/CDK2 enzyme (setting [9]), above 50 µM. Besides, the IC50 at cyclin D1/cdk 4 enzyme (setting [10]) is 29 µM.

Turning to `CC(C)C(=O)Nc1ccc(CN/C=C2\C(=O)NC(=O)c3ccc(I)cc32)cc1O` [Example 335, N-[2-Hydroxy-4-({[(Z)-(6-iodo-1,3-dioxo-2,3-dihydroisoquinolin-4(1H)-ylidene)methyl]amino}methyl)phenyl]-2-methylpropanamide], the IC50 with LoVo (setting [11]) was 4.5 µM; in the assay with BT474 (setting [12]), 5.1 µM; in the assay on MCF-7 (setting [13]) it was 5.9 µM; at cyclin B/CDK1 enzyme (setting [8]), above 50 µM; in the assay with HCT-116 (setting [14]) it was 5 µM; at cyclin E/CDK2 enzyme (setting [9]), 1.4 µM. For the same compound, the IC50 at cyclin D1/cdk 4 enzyme (setting [10]) was 0.02 µM.

On to `Nc1cccc(-c2ccc3c(c2)C(=CNCc2ccc(O)c(O)c2)C(=O)NC3=O)c1` [Example 821, 6-(3-Amino-phenyl)-4-[(3,4-dihydroxy-benzylamino)-methylene]-4H-isoquinoline-1,3-dione], for which the IC50 was found to be 50.1 µM in the assay with LoVo (setting [4]); 25.1 µM in the assay with BT474 (setting [5]); 27.2 µM in the assay on MCF-7 (setting [6]); 24.2 µM on cyclin B/CDK1 enzyme (setting [1]); 35.9 µM in the assay with HCT-116 (setting [7]); 20.7 µM on cyclin E/CDK2 enzyme (setting [2]). For the same compound, the IC50 at cyclin D1/cdk 4 enzyme (setting [3]) was 0.14 µM.

`CN1CCN(c2ccc(NC=C3C(=O)NC(=O)c4ccc(C=Cc5ccc(S(N)(=O)=O)cc5)cc43)cc2)CC1` [Example 728, 4-[2-(4-{[4-(4-Methyl-piperazin-1-yl)-phenylamino]-methylene}-1,3-dioxo-1,2,3,4-tetrahydro-isoquinolin-6-yl)-vinyl]-benzenesulfonamide]: the IC50 in the assay on LoVo (setting [4]) was above 50 µM; in the assay with BT474 (setting [5]), above 50 µM; in the assay with MCF-7 (setting [6]), above 50 µM; on cyclin B/CDK1 enzyme (setting [1]), 1 µM; in the assay with HCT-116 (setting [7]), 29.1 µM; at cyclin E/CDK2 enzyme (setting [2]) it was 1.3 µM. The IC50 at cyclin D1/cdk 4 enzyme (setting [3]) came out at 0.07 µM.

Take `CN1CCN(c2ccc(NC=C3C(=O)NC(=O)c4ccc(C=CCCCO)cc43)cc2)CC1` [Example 797, 6-(5-Hydroxy-pent-1-enyl)-4-{[4-(4-methyl-piperazin-1-yl)-phenylamino]-methylene}-4H-isoquinoline-1,3-dione]: the IC50 is 6.3 µM in the assay with LoVo (setting [4]); 19.3 µM with BT474 (setting [5]); 6.7 µM in the assay on MCF-7 (setting [6]); above 50 µM at cyclin B/CDK1 enzyme (setting [1]); 6.5 µM in the assay on HCT-116 (setting [7]); above 50 µM on cyclin E/CDK2 enzyme (setting [2]). In addition, the 50% inhibitory concentration (IC50) at cyclin D1/cdk 4 enzyme (setting [3]) came out at 0.9 µM.
